{
  "source": "patent US20260034064A1",
  "about": "“COMPOSITIONS FOR THE TREATMENT OF CFTR-MEDIATED DISEASES” (Vertex Pharmaceuticals Incorporated, priority 2022, published 2026)",
  "key": {"[1]": {"experiment": "Thermodynamic stability of solid forms of Compound I", "format": "physicochemical", "settings": "compared with other forms of Compound I; no method or data given"}, "[2]": {"experiment": "Bioavailability of the solid form of Compound I", "settings": "no species, dose or data printed"}},
  "data": [
    {"smiles": "Cc1nn(C)cc1S(=O)(=O)NC(=O)c1ccc(-n2ccc(OCC(C)(C)C(F)(F)F)n2)nc1N1C[C@@H](C)CC1(C)C", "note": "[Crystalline Compound I Form A, N-(1,3-dimethylpyrazol-4-yl)sulfonyl-6-[3-(3,3,3-trifluoro-2,2-dimethyl-propoxy)pyrazol-1-yl]-2-[(4S)-2,2,4-trimethylpyrrolidin-1-yl]pyridine-3-carboxamide]", "values": [
      {"measurement": "thermodynamic stability of the solid form", "setting": "[1]", "result": "most thermodynamically stable form"},
      {"measurement": "bioavailability", "setting": "[2]", "result": "good bioavailability"}
    ]}
  ]
}
